Results from patent US4039540A, “3-Substituted quinoxaline-2-carboxamide-1,4-dioxides” (Pfizer Inc., priority 1975, dated 1977).
Converted amounts (≈) assume the structure as drawn. Like-named read-outs stand apart in the source and are kept apart here.

Columns and labels:
[1] = system: E. coli; assay: in vivo activity in mice infected with a lethal inoculum of E. coli; conditions: Escherichia coli, sc, subcutaneous, multiple dosing, read-out: IN VIVO E. coli, number of survivors among the treated animals
Method: (§1) In determining the in vivo activity of the quinoxaline-1,4-dioxides of this invention, the test compound is administered to mice which have been infected by […] injection of a lethal inoculum of pathogenic bacteria. The test compound is administered using a multiple dosing regimen and using either the oral (PO) or the subcutaneous (SC) route. The inoculum of bacteria varies from about 1 to about 10 times the amount needed to kill 100% of the mice under the conditions of the test. At the end of the test, the activity of the compound is assessed by counting the number of survivors among the treated animals.
(§2) In vitro and in vivo activity of representative compounds of this invention, determined as aforesaid, are reported in the following tabulation for compounds of the formula: [drawing 12]

[2] = system: E. coli; assay: in vitro antibacterial activity, two-fold serial dilution in Brain-Heart Infusion Broth (MIC); type: cell-based; conditions: Escherichia coli, overnight, anaerobic
Method: (§3) The broth is inoculated with bacteria and with the test quinoxaline-1,4-dioxide and then it is incubated overnight under anerobic conditions. On the next day, the test is read visually. The minimum inhibitory concentration (MIC) of test compound is the lowest concentration which prevents turbidity, i.e., which prevents growth of the microorganism.
as §2

[3] = system: Strep. pyrogens; assay: as above; type: cell-based; conditions: overnight, anaerobic
Method: as §3, §2

[4] = system: Strep. pyogenes; assay: in vivo activity in mice infected with a lethal inoculum of Strep. pyogenes; conditions: Streptococcus pyogenes, multiple dosing
Method: as §1, §2

[5] = oral, read-out: IN VIVO Strep. pyogenes, number of survivors among the treated animals, PO (data in parenthesis)
[6] = sc, subcutaneous, read-out: IN VIVO Strep. pyogenes, number of survivors among the treated animals

COCCNC(=O)c1c(CS(=O)(=O)CCCOC(C)=O)[n+]([O-])c2ccccc2[n+]1[O-] [NHCH2 CH2 OCH3; SO2 CH2 CH2 CH2 OAc; H]
responders at 25 mg/kg [1]: 10% | MIC [2]: 100 µg/mL (≈ 227 µM) | MIC [3]: 12.5 µg/mL (≈ 28.3 µM) | responders at 50 mg/kg [4, 5]: 10% | responders at 50 mg/kg [4, 6]: 20%

COCCNC(=O)c1c(CS(=O)(=O)CCO)[n+]([O-])c2ccccc2[n+]1[O-] [NHCH2 CH2 OCH3; SO2 CH2 CH2 OH; H]
responders at 25 mg/kg [1]: 0% | MIC [2]: 12.5 µg/mL (≈ 32.4 µM) | MIC [3]: 0.781 µg/mL (≈ 2.03 µM) | responders at 50 mg/kg [4, 5]: 0% | responders at 50 mg/kg [4, 6]: 40%

COCCNC(=O)c1c(CS(=O)(=O)CCCN2CCCCC2)[n+]([O-])c2ccccc2[n+]1[O-] [NHCH2 CH2 OCH3; drawing 25; H]
responders at 25 mg/kg [1]: 20% | MIC [2]: 50 µg/mL (≈ 107 µM) | MIC [3]: 1.56 µg/mL (≈ 3.35 µM) | responders at 50 mg/kg [4, 5]: 100% | responders at 50 mg/kg [4, 6]: 100%

CC(=O)OCCCSCc1c(C(=O)NCCO)[n+]([O-])c2ccccc2[n+]1[O-] [NHCH2 CH2 OH; S(CH2)3 OAc; H]
responders at 25 mg/kg [1]: 30% | MIC [2]: 100 µg/mL (≈ 253 µM) | MIC [3]: 6.25 µg/mL (≈ 15.8 µM) | responders at 50 mg/kg [4, 5]: 30% | responders at 50 mg/kg [4, 6]: 10%

O=C(NCCO)c1c(CSCCO)[n+]([O-])c2ccccc2[n+]1[O-] [NHCH2 CH2 OH; SCH2 CH2 OH; H]
responders at 25 mg/kg [1]: 0% | MIC [2]: 50 µg/mL (≈ 147 µM) | MIC [3]: 12.5 µg/mL (≈ 36.8 µM) | responders at 50 mg/kg [4, 5]: 50% | responders at 50 mg/kg [4, 6]: 30%

CN(C)CCCS(=O)(=O)Cc1c(C(=O)NCCO)[n+]([O-])c2ccccc2[n+]1[O-] [NHCH2 CH2 OH; SO2 (CH2)3 N(CH3)2; H]
responders at 25 mg/kg [1]: 0% | MIC [2]: 50 µg/mL (≈ 121 µM) | MIC [3]: 50 µg/mL (≈ 121 µM) | responders at 50 mg/kg [4, 5]: 0% | responders at 50 mg/kg [4, 6]: 60%

O=C(NCCO)c1c(CS(=O)(=O)CCO)[n+]([O-])c2ccccc2[n+]1[O-] [NHCH2 CH2 OH; SO2 CH2 CH2 OH; H]
responders at 25 mg/kg [1]: 10% | MIC [2]: 100 µg/mL (≈ 269 µM) | MIC [3]: 25 µg/mL (≈ 67.3 µM) | responders at 50 mg/kg [4, 5]: 10% | responders at 50 mg/kg [4, 6]: 30%

O=C(NCCO)c1c(CS(=O)(=O)CCCN2CCCCC2)[n+]([O-])c2ccccc2[n+]1[O-] [NHCH2 CH2 OH; drawing 22; H]
responders at 25 mg/kg [1]: 20% | MIC [2]: 25 µg/mL (≈ 55.2 µM) | MIC [3]: 50 µg/mL (≈ 110 µM) | responders at 50 mg/kg [4, 5]: 20% | responders at 50 mg/kg [4, 6]: 100%

CCSCCNC(=O)c1c(CS(=O)(=O)CCO)[n+]([O-])c2ccccc2[n+]1[O-] [NHCH2 CH2 SCH2 CH3; SO2 CH2 CH2 OH; H]
responders at 25 mg/kg [1]: 50% | MIC [2]: 100 µg/mL (≈ 241 µM) | MIC [3]: 1.56 µg/mL (≈ 3.76 µM) | responders at 50 mg/kg [4, 5]: 0% | responders at 50 mg/kg [4, 6]: 10%

CCNC(=O)c1c(CSCCCOC(C)=O)[n+]([O-])c2ccccc2[n+]1[O-] [NHCH2 CH3; SCH2 CH2 CH2 OAc; H]
responders at 25 mg/kg [1]: 0% | MIC [2]: 25 µg/mL (≈ 65.9 µM) | MIC [3]: 3.12 µg/mL (≈ 8.24 µM) | responders at 50 mg/kg [4, 5]: 20% | responders at 50 mg/kg [4, 6]: 10%

CCNC(=O)c1c(CSCCO)[n+]([O-])c2ccccc2[n+]1[O-] [NHCH2 CH3; SCH2 CH2 OH; H]
responders at 25 mg/kg [1]: 40% | MIC [2]: 6.25 µg/mL (≈ 19.3 µM) | MIC [3]: 3.12 µg/mL (≈ 9.66 µM) | responders at 50 mg/kg [4, 5]: 20% | responders at 50 mg/kg [4, 6]: 20%

CCNC(=O)c1c(CS(=O)(=O)CCCN(C)C)[n+]([O-])c2ccccc2[n+]1[O-] [NHCH2 CH3; SO2 (CH2)3 N(CH3)2; H]
responders at 25 mg/kg [1]: 100% | MIC [2]: 12.5 µg/mL (≈ 31.5 µM) | MIC [3]: 1.56 µg/mL (≈ 3.94 µM) | responders at 50 mg/kg [4, 5]: 100% | responders at 50 mg/kg [4, 6]: 100%

CCNC(=O)c1c(CS(=O)(=O)CCCO)[n+]([O-])c2ccccc2[n+]1[O-] [NHCH2 CH3; SO2 CH2 CH2 CH2 OH; H]
responders at 25 mg/kg [1]: 10% | MIC [2]: 6.25 µg/mL (≈ 16.9 µM) | MIC [3]: < 0.39 µg/mL | responders at 50 mg/kg [4, 5]: 20% | responders at 50 mg/kg [4, 6]: 80%

CCNC(=O)c1c(CS(=O)(=O)CCCN2CCOCC2)[n+]([O-])c2ccccc2[n+]1[O-] [NHCH2 CH3; drawing 17; H]
responders at 25 mg/kg [1]: 60% | MIC [2]: 25 µg/mL (≈ 57 µM) | MIC [3]: 12.5 µg/mL (≈ 28.5 µM) | responders at 50 mg/kg [4, 5]: 80% | responders at 50 mg/kg [4, 6]: 100%

CCNC(=O)c1c(CS(=O)(=O)CCCN2CCCCC2)[n+]([O-])c2ccccc2[n+]1[O-] [NHCH2 CH3; drawing 26; H]
responders at 25 mg/kg [1]: 60% | MIC [2]: 12.5 µg/mL (≈ 28.6 µM) | MIC [3]: 3.12 µg/mL (≈ 7.16 µM) | responders at 50 mg/kg [4, 5]: 90% | responders at 50 mg/kg [4, 6]: 100%

O=C(NCC(O)CO)c1c(CS(=O)(=O)CCO)[n+]([O-])c2ccccc2[n+]1[O-] (centres unmarked) [NHCH2 CHOHCH2 OH; SO2 CH2 CH2 OH; H]
responders at 25 mg/kg [1]: 0% | MIC [2]: 200 µg/mL (≈ 498 µM) | MIC [3]: 6.25 µg/mL (≈ 15.6 µM) | responders at 50 mg/kg [4, 5]: 70% | responders at 50 mg/kg [4, 6]: 40%

CC(O)CNC(=O)c1c(CS(=O)(=O)CCO)[n+]([O-])c2ccccc2[n+]1[O-] (centres unmarked) [NHCH2 CHOHCH3; SO2 CH2 CH2 OH; H]
responders at 25 mg/kg [1]: 20% | MIC [2]: 100 µg/mL (≈ 259 µM) | MIC [3]: 12.5 µg/mL (≈ 32.4 µM) | responders at 50 mg/kg [4, 5]: 10% | responders at 50 mg/kg [4, 6]: 0%

CCOC(=O)CSCc1c(C(=O)NC)[n+]([O-])c2ccccc2[n+]1[O-] [NHCH3; SCH2 CO2 Et; H]
responders at 25 mg/kg [1]: 30% | MIC [2]: 12.5 µg/mL (≈ 35.6 µM) | MIC [3]: 12.5 µg/mL (≈ 35.6 µM) | responders at 50 mg/kg [4, 5]: 0% | responders at 50 mg/kg [4, 6]: 0%

CCN(CC)CCCS(=O)(=O)Cc1c(C(=O)NC)[n+]([O-])c2ccccc2[n+]1[O-] [NHCH3; SO2 (CH2)3 N(CH2 CH3)2; H]
responders at 25 mg/kg [1]: 40% | MIC [2]: 25 µg/mL (≈ 60.9 µM) | MIC [3]: 12.5 µg/mL (≈ 30.5 µM) | responders at 50 mg/kg [4, 5]: 0% | responders at 50 mg/kg [4, 6]: 80%

CNC(=O)c1c(CS(=O)(=O)CCCN(C)C)[n+]([O-])c2ccccc2[n+]1[O-] [NHCH3; SO2 (CH2)3 N(CH3)2; H]
responders at 25 mg/kg [1]: 100% | MIC [2]: 6.25 µg/mL (≈ 16.3 µM) | MIC [3]: 3.12 µg/mL (≈ 8.17 µM) | responders at 50 mg/kg [4, 6]: 100%

CNC(=O)c1c(CS(=O)(=O)CCOC(C)=O)[n+]([O-])c2ccccc2[n+]1[O-] [NHCH3; SO2 CH2 CH2 OAc; H]
responders at 25 mg/kg [1]: 80% | MIC [2]: 3.12 µg/mL (≈ 8.15 µM) | MIC [3]: < 0.391 µg/mL | responders at 50 mg/kg [4, 5]: 70% | responders at 50 mg/kg [4, 6]: 90%

CNC(=O)c1c(CS(=O)(=O)CCO)[n+]([O-])c2ccccc2[n+]1[O-] [NHCH3; SO2 CH2 CH2 OH; H]
responders at 25 mg/kg [1]: 100% | MIC [2]: 0.781 µg/mL (≈ 2.29 µM) | MIC [3]: 1.56 µg/mL (≈ 4.58 µM) | responders at 50 mg/kg [4, 5]: 40% | responders at 50 mg/kg [4, 6]: 80%

CNC(=O)c1c(CS(=O)(=O)CCCN2CCOCC2)[n+]([O-])c2ccccc2[n+]1[O-] [NHCH3; drawing 18; H]
responders at 25 mg/kg [1]: 0% | MIC [2]: 25 µg/mL (≈ 58.9 µM) | MIC [3]: 25 µg/mL (≈ 58.9 µM) | responders at 50 mg/kg [4, 5]: 70% | responders at 50 mg/kg [4, 6]: 100%

CNC(=O)c1c(CS(=O)(=O)CCCN2CCCCC2)[n+]([O-])c2ccccc2[n+]1[O-] [NHCH3; drawing 23; H]
responders at 25 mg/kg [1]: 100% | MIC [2]: 6.25 µg/mL (≈ 14.8 µM) | MIC [3]: 6.25 µg/mL (≈ 14.8 µM) | responders at 50 mg/kg [4, 5]: 70% | responders at 50 mg/kg [4, 6]: 100%

CCC(CO)NC(=O)c1c(CS(=O)(=O)CCO)[n+]([O-])c2ccccc2[n+]1[O-] (centres unmarked) [NHCHEtCH2 OH; SO2 CH2 CH2 OH; H]
responders at 25 mg/kg [1]: 10% | MIC [2]: 200 µg/mL (≈ 501 µM) | MIC [3]: 3.12 µg/mL (≈ 7.82 µM) | responders at 50 mg/kg [4, 5]: 80% | responders at 50 mg/kg [4, 6]: 0%

CCNC(=O)c1c(CS(=O)(=O)CCO)[n+]([O-])c2ccccc2[n+]1[O-] [NHEt; SO2 CH2 CH2 OH; H]
responders at 25 mg/kg [1]: 90% | MIC [2]: 6.25 µg/mL (≈ 17.6 µM) | MIC [3]: 1.56 µg/mL (≈ 4.4 µM) | responders at 50 mg/kg [4, 5]: 80% | responders at 50 mg/kg [4, 6]: 60%

CNC(=O)c1c(CSCCCO)[n+]([O-])c2ccccc2[n+]1[O-] [NHMe; SCH2 CH2 CH2 OH; H]
responders at 25 mg/kg [1]: 20% | MIC [2]: 12.5 µg/mL (≈ 38.7 µM) | MIC [3]: 1.56 µg/mL (≈ 4.83 µM) | responders at 50 mg/kg [4, 5]: 10% | responders at 50 mg/kg [4, 6]: 0%
